The experiment addresses Carbonic anhydrase 4 (Homo sapiens) (UniProt P22748).

Sequence of Carbonic anhydrase 4 (Homo sapiens) (P22748 whole entry): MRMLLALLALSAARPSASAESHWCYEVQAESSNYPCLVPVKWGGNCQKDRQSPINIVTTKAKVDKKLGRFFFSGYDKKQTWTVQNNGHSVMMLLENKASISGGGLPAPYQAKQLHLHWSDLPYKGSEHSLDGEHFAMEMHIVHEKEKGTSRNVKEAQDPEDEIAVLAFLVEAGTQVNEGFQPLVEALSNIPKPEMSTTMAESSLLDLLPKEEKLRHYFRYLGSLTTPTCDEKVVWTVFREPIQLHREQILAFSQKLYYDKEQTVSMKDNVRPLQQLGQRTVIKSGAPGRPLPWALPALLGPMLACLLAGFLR
Description: Inhibition of human recombinant full length CA4 by stopped-flow technique

Compound `CCNC1CN(CCCOC)S(=O)(=O)c2sc(S(N)(=O)=O)cc21` (single isomer, unassigned) yielded a Kinact of 3.95 µM.

For the origin of these results see ChEMBL document CHEMBL1149636.
